How the values were obtained:
[1] = biological target: T1, AR transcriptional activity (Homo sapiens, UniProt P10275, T878A); test: eGFP cellular AR transcription assay; type: cell-based; details: for IC50 / eGFP IC50: LNCaP eGFP cell line; for inhibition at 1 µM: read-out: eGFP % inhib. at 1 μM
T1 construct: The LNCaP eGFP cell line was stably transfected with an androgen-responsive probasin-derived promoter fused to an eGFP reporter; endogenous in cells; host or cells: LNCaP eGFP (LN-ARR2PB-eGFP) human prostate cancer cells
T1 sequence (P10275 1-920 T878A): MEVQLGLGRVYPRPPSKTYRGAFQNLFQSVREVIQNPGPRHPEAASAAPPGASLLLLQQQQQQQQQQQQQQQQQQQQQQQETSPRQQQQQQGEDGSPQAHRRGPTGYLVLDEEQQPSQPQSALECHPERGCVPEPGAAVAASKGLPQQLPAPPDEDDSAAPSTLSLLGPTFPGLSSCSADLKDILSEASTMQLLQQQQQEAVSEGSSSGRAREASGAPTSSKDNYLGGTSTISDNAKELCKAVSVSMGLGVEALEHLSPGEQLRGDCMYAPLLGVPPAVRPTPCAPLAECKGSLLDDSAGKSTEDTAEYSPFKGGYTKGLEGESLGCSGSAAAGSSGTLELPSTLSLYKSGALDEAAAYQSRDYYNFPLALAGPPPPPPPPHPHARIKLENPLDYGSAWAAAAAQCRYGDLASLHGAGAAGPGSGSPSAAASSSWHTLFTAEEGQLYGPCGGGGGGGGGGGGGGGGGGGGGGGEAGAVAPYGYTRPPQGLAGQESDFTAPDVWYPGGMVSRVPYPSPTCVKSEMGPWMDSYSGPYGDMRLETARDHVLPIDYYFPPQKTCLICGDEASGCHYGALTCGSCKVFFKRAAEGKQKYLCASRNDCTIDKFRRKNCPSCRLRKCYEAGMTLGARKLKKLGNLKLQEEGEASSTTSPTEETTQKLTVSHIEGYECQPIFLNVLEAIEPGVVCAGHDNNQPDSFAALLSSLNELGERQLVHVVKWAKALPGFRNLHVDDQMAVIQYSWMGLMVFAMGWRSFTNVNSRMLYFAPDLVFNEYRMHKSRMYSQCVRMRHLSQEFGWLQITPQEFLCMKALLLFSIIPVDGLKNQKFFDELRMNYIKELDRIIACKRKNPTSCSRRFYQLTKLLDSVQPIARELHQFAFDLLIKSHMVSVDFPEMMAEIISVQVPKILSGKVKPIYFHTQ
Excerpt: The DNA-binding domain is an attractive target for inhibition of AR dimerization and/or DNA binding. In silico computational drug discovery methods were used to conduct a virtual screen of >3 million purchasable lead-like compounds from the ZINC database (Irwin, J. et al.^11) to identify potential DBD binders. The in silico methods included large-scale docking, in-site rescoring and consensus voting procedures. It will be understood by a person of skill that COOH and NR2 may include the corresponding ions, for example carboxylate ions and ammonium ions, respectively. Alternatively, where the ions are shown, a person of skill in the art will appreciate that the counter ion may also be present. Furthermore, it will be appreciated by a person of skill that other moieties may include the corresponding ions, and where the ions are shown, a person of skill in the art will appreciate that the counter ion may also be present. […] Where the % inhibition, eGFP IC50 or the PSA IC50 has no value given, this may be because no measurement was taken or the value was not calculated, in the case of the % inhibition. In vitro identification of AR inhibitors targeting AR DBD The selected compounds were assessed with a non-destructive eGFP assay that quantifies levels of AR transcriptional activity, were identified (table below).
1. Cell Culture: LNCaP and PC3 human prostate cancer cells were obtained from American Type Culture Collection (ATCC, Manassas, Va.) and grown in RPMI 1640 medium supplemented with 5% fetal bovine serum (FBS) (Invitrogen). The LNCaP eGFP cell line was stably transfected with an androgen-responsive probasin-derived promoter fused to an eGFP reporter (LN-ARR2PB-eGFP) using a lentiviral approach, and were grown in phenol-red-free RPMI 1640 supplemented with 5% CSS. In-house developed MDV3100-resistant LNCaP cells were cultured in RPMI 1640 supplemented with 5% FBS and 10 μM MDV3100. All cells were maintained at 37° C. in 5% CO2.
2. eGFP cellular AR transcription assay: The AR transcriptional activity was assayed as previously described (Tavassoli, P., et al.^12).

in vitro = details: human, microsomes; for microsomal CLint at 2 μM: pH 7.4
Procedure: Microsomal incubations were carried out in 96-well plates in 5 aliquots of 40 μL each (one for each time point). […] Control incubations were performed replacing the NADPH-cofactor system with PBS. […] Incubations were performed in duplicates. Five time points over 40 minutes had been analyzed. The reactions were stopped by adding 12 volumes of 90% acetonitrile-water to incubation aliquots, followed by protein sedimentation by centrifuging at 5500 rpm for 5 minutes. Supernatants were analyzed using the HPLC system coupled with tandem mass spectrometer. The elimination constant (kel), half-life (t1/2) and intrinsic clearance (Clint) were determined in plot of […] versus time, using linear regression analysis: […]

IC50 [1] [nM] | microsomal CLint at 2 μM (in vitro) [µL/min/mg] | Structure (SMILES) | also measured
1600 | – | N#Cc1nc(Br)cn1-c1csc(N2CCOCC2)n1 [Example 51, 4-bromo-1-(2-morpholinothiazol-4-yl)imidazole-2-carbonitrile] | –
– | 19 | OCc1ncn(-c2csc(N3CCOCC3)n2)c1Br [Example 62, [5-bromo-1-(2-morpholinothiazol-4-yl)imidazol-4-yl]methanol] | eGFP IC50 [1]: inact.
1950 | 44 | FC(F)(F)C1CN(c2nc(-n3cc(Br)nc3Br)cs2)CCO1 (stereo not drawn) [Example 38, 4-[4-(2,4-dibromoimidazol-1-yl)thiazol-2-yl]-2-(trifluoromethyl)morpholine] | –
6450 | 10 | OCc1nc(Br)c(Br)n1-c1csc(N2CCOCC2)n1 [Example 57, [4,5-dibromo-1-(2-morpholinothiazol-4-yl)imidazol-2-yl]methanol] | metabolic stability in human hepatic microsomal test system (in words) (in vitro): high metabolic stability
– | 185 | Clc1c(Br)ncn1-c1csc(N2CCOCC2)n1 [Example 45, 4-[4-(4-bromo-5-chloro-imidazol-1-yl)thiazol-2-yl]morpholine] | –
– | 15 | OCc1c(Br)ncn1-c1csc(N2CCOCC2)n1 [Example 61, [5-bromo-3-(2-morpholinothiazol-4-yl)imidazol-4-yl]methanol] | inhibition at 1 µM [1]: 31%; metabolic stability in human hepatic microsomal test system (in words) (in vitro): high metabolic stability
4470 | – | Brc1ncn(-c2csc(N3CCOC4(COC4)C3)n2)c1Br [Example 65, 8-(4-(4,5-dibromo-1H-imidazol-1-yl)thiazol-2-yl)-2,5-dioxa-8-azaspiro[3.5]nonane] | –
– | 196 | Clc1ncn(-c2csc(N3CCOCC3)n2)c1Br [Example 44, 4-[4-(5-bromo-4-chloro-imidazol-1-yl)thiazol-2-yl]morpholine] | –
970 | – | Clc1cn(-c2csc(N3CCOCC3)n2)cn1 [Example 47, 4-[4-(4-chloroimidazol-1-yl)thiazol-2-yl]morpholine] | –
– | 81 | Brc1cn(-c2csc(N3CCOCC3)n2)cn1 [Example 48, 4-[4-(4-bromoimidazol-1-yl)thiazol-2-yl]morpholine] | –
3650 | – | Cc1ncn(-c2csc(N3CCOCC3)n2)c1C [Example 52, 4-[4-(4,5-dimethylimidazol-1-yl)thiazol-2-yl]morpholine] | –

More lines, now with the values behind:

Structure (SMILES) | IC50 [1] [nM] | microsomal CLint at 2 μM (in vitro) [µL/min/mg] | also measured
CCC1(CC)CN(c2nc(-n3cc(Br)nc3Br)cs2)CCO1 [Example 37, 4-[4-(2,4-dibromoimidazol-1-yl)thiazol-2-yl]-2,2-diethyl-morpholine] | – | 129 | inhibition at 1 µM [1]: 33%
Brc1cn(-c2csc(N3CCOC4CCCC43)n2)c(Br)n1 (stereo not drawn) [Example 26, 4-[4-(2,4-dibromoimidazol-1-yl)thiazol-2-yl]-3,4a,5,6,7,7a-hexahydro-2H-cyclopenta[b][1,4]oxazine] | 1530 | – | –
Clc1ncn(-c2csc(N3C[C@H]4CC[C@@H](C3)O4)n2)c1Cl [Example 20, (1S,5R)-3-[4-(4,5-dichloroimidazol-1-yl)thiazol-2-yl]-8-oxa-3-azabicyclo[3.2.1]octane] | 250 | 40 | –
CC(C)C1CN(c2nc(-n3cc(Br)nc3Br)cs2)CCO1 (stereo not drawn) [Example 30, 4-[4-(2,4-dibromoimidazol-1-yl)thiazol-2-yl]-2-isopropyl-morpholine] | 6650 | – | –
Brc1ncn(-c2csc(N3C[C@@H]4C[C@H]3CO4)n2)c1Br [Example 12, (1S,4S)-5-[4-(4,5-dibromoimidazol-1-yl)thiazol-2-yl]-2-oxa-5-azabicyclo[2.2.1]heptane] | 1320 | – | –
OCc1nc(Br)c(Br)n1-c1csc(N2[C@@H]3CC[C@H]2COC3)n1 [Example 36, [4,5-dibromo-1-[2-[(1R,5S)-3-oxa-8-azabicyclo[3.2.1]octan-8-yl]thiazol-4-yl]imidazol-2-yl]methanol] | 2990 | 10 | metabolic stability in human hepatic microsomal test system (in words) (in vitro): high metabolic stability
CSc1nc(Br)cn1-c1csc(N2[C@@H]3CC[C@H]2COC3)n1 [Example 16, (1R,5S)-8-[4-(4-bromo-2-methylsulfanyl-imidazol-1-yl)thiazol-2-yl]-3-oxa-8-azabicyclo[3.2.1]octane] | 140 | – | –
Brc1cn(-c2csc(N3CCOC(c4ccccc4)C3)n2)c(Br)n1 (stereo not drawn) [Example 31, 4-[4-(2,4-dibromoimidazol-1-yl)thiazol-2-yl]-2-phenyl-morpholine] | 8150 | – | –
Brc1cn(-c2csc(N3CCOC(c4cccs4)C3)n2)c(Br)n1 (stereo not drawn) [Example 33, 4-[4-(2,4-dibromoimidazol-1-yl)thiazol-2-yl]-2-(2-thienyl)morpholine] | 170 | – | –
Brc1cn(-c2csc(N3CCOCC3C3CC3)n2)c(Br)n1 (stereo not drawn) [Example 14, 3-cyclopropyl-4-[4-(2,4-dibromoimidazol-1-yl)thiazol-2-yl]morpholine] | 120 | – | –
FC(F)(F)C1CN(c2nc(-n3cc(Br)nc3Br)cs2)CCO1 (stereo not drawn) [Example 25, 4-[4-(2,4-dibromoimidazol-1-yl)thiazol-2-yl]-2-(trifluoromethyl)morpholine] | 1700 | – | –
Brc1cn(-c2csc(N3CCOC4(CCOCC4)C3)n2)c(Br)n1 [Example 28, 4-[4-(2,4-dibromoimidazol-1-yl)thiazol-2-yl]-1,9-dioxa-4-azaspiro[5.5]undecane] | 3120 | – | –
Brc1cn(-c2csc(N3C[C@@H]4C[C@H]3CO4)n2)c(Br)n1 [Example 11, (1S,4S)-5-[4-(2,4-dibromoimidazol-1-yl)thiazol-2-yl]-2-oxa-5-azabicyclo[2.2.1]heptane] | 1180 | – | –
Brc1cn(-c2csc(N3CCOC(Cc4ccccc4)C3)n2)c(Br)n1 (stereo not drawn) [Example 32, 2-benzyl-4-[4-(2,4-dibromoimidazol-1-yl)thiazol-2-yl]morpholine] | 27400 | – | –
Brc1cn(-c2csc(N3CCOC4CCCCC43)n2)c(Br)n1 (stereo not drawn) [Example 29, 4-[4-(2,4-dibromoimidazol-1-yl)thiazol-2-yl]-2,3,4a,5,6,7,8,8a-octahydrobenzo[b][1,4]oxazine] | 3150 | – | –
CC(C)(C)C1CN(c2nc(-n3cc(Br)nc3Br)cs2)CC(C(C)(C)C)O1 (stereo not drawn) [Example 34, 2,6-ditert-butyl-4-[4-(2,4-dibromoimidazol-1-yl)thiazol-2-yl]morpholine] | – | – | eGFP IC50 [1]: inact.
Brc1cn(-c2csc(N3CC4CC3CO4)n2)c(Br)n1 (stereo not drawn) [Example 27, 5-[4-(2,4-dibromoimidazol-1-yl)thiazol-2-yl]-2-oxa-5-azabicyclo[2.2.1]heptane] | 1610 | – | –
Brc1cn(-c2csc(N3C[C@H]4CC[C@@H](C3)O4)n2)c(Br)n1 [Example 13, (1S,5R)-3-[4-(2,4-dibromoimidazol-1-yl)thiazol-2-yl]-8-oxa-3-azabicyclo[3.2.1]octane] | 110 | – | –

— patent US20200031848A1, “AR-V7 INHIBITORS” (Hoffmann-La Roche Inc., priority 2016, published 2020)
